According to ChEMBL document CHEMBL1144622, “Novel malonamide derivatives as potent kappa opioid receptor agonists” (Bioorg Med Chem Lett, 2007):

Experiments:
[1] = biological target: Kappa-type opioid receptor (Homo sapiens, UniProt P41145); assay: Agonist activity at human kappa opioid receptor by [35S]GTP-gamma-S binding assay; type: functional
[2] = biological target: Opioid receptors; mu & kappa (Homo sapiens) (UniProt P41145+P35372); assay: Selectivity for human kappa opioid receptor over human mu opioid receptor; type: functional
Sequence of Opioid receptors; mu & kappa (Homo sapiens) (P35372 whole entry, looked up): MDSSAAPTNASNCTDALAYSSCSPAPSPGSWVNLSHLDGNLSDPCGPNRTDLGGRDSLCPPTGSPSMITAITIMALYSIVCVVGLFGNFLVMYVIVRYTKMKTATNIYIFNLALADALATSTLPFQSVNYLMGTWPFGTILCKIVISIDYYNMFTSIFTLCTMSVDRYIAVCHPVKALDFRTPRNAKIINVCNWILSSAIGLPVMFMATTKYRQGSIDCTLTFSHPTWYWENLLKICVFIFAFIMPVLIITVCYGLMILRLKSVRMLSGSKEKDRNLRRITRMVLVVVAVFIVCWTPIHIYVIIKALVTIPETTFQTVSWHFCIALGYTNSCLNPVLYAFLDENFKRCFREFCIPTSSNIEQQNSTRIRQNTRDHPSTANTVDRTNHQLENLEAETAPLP
Sequence of Opioid receptors; mu & kappa (Homo sapiens) (P41145 whole entry, looked up): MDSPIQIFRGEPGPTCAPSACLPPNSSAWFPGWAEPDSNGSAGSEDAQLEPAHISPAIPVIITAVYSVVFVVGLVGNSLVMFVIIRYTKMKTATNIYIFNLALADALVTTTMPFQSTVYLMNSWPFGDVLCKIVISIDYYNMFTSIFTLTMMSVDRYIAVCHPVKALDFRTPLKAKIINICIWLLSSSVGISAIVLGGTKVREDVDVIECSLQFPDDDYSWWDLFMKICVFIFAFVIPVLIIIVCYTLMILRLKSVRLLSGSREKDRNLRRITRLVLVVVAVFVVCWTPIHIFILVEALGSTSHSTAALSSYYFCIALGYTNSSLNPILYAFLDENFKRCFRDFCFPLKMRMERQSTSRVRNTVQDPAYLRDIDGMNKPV

[3] = biological target: Opioid receptors; delta & kappa (Homo sapiens) (UniProt P41145+P41143); assay: Selectivity for human kappa opioid receptor over human delta opioid receptor; type: functional
Sequence of Opioid receptors; delta & kappa (Homo sapiens) (P41143 whole entry, looked up): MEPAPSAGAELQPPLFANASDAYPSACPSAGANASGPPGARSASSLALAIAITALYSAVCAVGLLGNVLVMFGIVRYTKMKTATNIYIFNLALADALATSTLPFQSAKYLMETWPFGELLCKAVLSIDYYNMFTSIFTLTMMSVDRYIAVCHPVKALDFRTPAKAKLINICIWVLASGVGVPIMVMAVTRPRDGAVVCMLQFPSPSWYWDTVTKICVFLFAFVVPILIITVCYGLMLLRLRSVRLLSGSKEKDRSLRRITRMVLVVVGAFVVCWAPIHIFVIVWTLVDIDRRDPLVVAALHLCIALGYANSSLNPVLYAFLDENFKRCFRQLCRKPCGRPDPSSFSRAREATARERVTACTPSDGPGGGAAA
Sequence of Opioid receptors; delta & kappa (Homo sapiens) (P41145 whole entry, looked up): as the sequence (P41145 whole entry, looked up) above

Cytochrome P450 2D6 = Cytochrome P450 2D6 (Homo sapiens, UniProt P10635); assay: Inhibition of CYP2D6; type: ADME
Sequence of Cytochrome P450 2D6 (P10635 whole entry): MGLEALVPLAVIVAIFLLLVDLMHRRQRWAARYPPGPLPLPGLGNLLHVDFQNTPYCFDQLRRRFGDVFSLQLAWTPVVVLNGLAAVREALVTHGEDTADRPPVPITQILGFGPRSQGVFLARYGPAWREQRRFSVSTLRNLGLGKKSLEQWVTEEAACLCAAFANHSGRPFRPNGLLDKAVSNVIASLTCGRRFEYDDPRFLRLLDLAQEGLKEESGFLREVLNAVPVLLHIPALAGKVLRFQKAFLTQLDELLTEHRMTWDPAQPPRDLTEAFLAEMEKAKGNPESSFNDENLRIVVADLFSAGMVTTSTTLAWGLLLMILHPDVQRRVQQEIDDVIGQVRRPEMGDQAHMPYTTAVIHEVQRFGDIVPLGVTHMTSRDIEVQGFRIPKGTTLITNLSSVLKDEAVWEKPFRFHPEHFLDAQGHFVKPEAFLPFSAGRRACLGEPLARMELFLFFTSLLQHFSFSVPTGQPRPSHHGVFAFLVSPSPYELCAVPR

Rattus norvegicus = assay: Antinociceptive activity in rat at 300 ug, sc by formalin-induced flinching assay; type: functional
Mus musculus = assay: Analgesic activity in sc dosed mouse assessed as inhibition of acetic acid-induced writhing; type: functional

Sequence of Kappa-type opioid receptor (P41145 whole entry): as the sequence (P41145 whole entry, looked up) above

`CN(C(=O)CC(=O)Nc1cccnc1)[C@H](CN1CC[C@H](O)C1)c1ccccc1` gave a Ki [1] of 1.3 nM, a Ratio Ki [2] of 450 and a Ratio Ki [3] of 15. It also gave an IC50 (Cytochrome P450 2D6) greater than 10000 nM.
`CN(C(=O)CC(=O)Nc1ccc(NS(C)(=O)=O)cc1)[C@H](CN1CC[C@H](O)C1)c1ccccc1` gave a Ki [1] of 29 nM, a Ratio Ki [2] of 4.8 and a Ratio Ki [3] of 39. The IC50 (Cytochrome P450 2D6) was 10000 nM.
For `CN(C(=O)NCC(=O)Nc1ccccc1)[C@H](CN1CC[C@H](O)C1)c1ccccc1`, the Ki [1] was 6.5 nM, the Ratio Ki [2] was 110 and the Ratio Ki [3] was 8.7. It also gave an IC50 (Cytochrome P450 2D6) of 5100 nM.
`CN(C(=O)CC(=O)Nc1nccs1)[C@H](CN1CC[C@H](O)C1)c1ccccc1` showed a Ki [1] of 0.53 nM, a Ratio Ki [2] of 180 and a Ratio Ki [3] of 71. For the same compound, the IC50 (Cytochrome P450 2D6) was 700 nM.
In the case of `CN(C(=O)CC(=O)Nc1ccccc1)[C@H](CN1CC[C@H](O)C1)c1ccccc1`, the Activity (Rattus norvegicus) is reported as 93%, the ED50 (Mus musculus) is reported as 0.03 mg/kg and the Ki [1] is reported as 0.27 nM. It also gave a Ratio Ki [2] of 120, a Ratio Ki [3] of 25 and an IC50 (Cytochrome P450 2D6) of 5300 nM.
`CN(C(=O)CCC(=O)Nc1ccccc1)[C@H](CN1CC[C@H](O)C1)c1ccccc1` was tested, and the Ki [1] was 6 nM, the Ratio Ki [3] was 220 and the IC50 (Cytochrome P450 2D6) was 8600 nM.
For `CN(C(=O)CCC(=O)Nc1nccs1)[C@H](CN1CC[C@H](O)C1)c1ccccc1`, the Ki [1] was 23 nM, the Ratio Ki [3] was 14 and the IC50 (Cytochrome P450 2D6) was 3400 nM.
`CN(C(=O)CC(=O)Nc1ccc(CNS(C)(=O)=O)cc1)[C@H](CN1CC[C@H](O)C1)c1ccccc1` gave a Ki [1] of 96 nM, a Ratio Ki [2] of 4.3 and a Ratio Ki [3] of 10. The IC50 (Cytochrome P450 2D6) was 5400 nM.
Compound `CN(C(=O)CC(=O)NCc1ccccc1)[C@H](CN1CC[C@H](O)C1)c1ccccc1` has a Ki [1] of 15 nM, a Ratio Ki [2] of 120 and a Ratio Ki [3] of 40. The IC50 (Cytochrome P450 2D6) was 3200 nM.
Work on `CN(C(=O)CCC(=O)Nc1cccnc1)[C@H](CN1CC[C@H](O)C1)c1ccccc1` yielded a Ki [1] of 280 nM, a Ratio Ki [3] of 5 and an IC50 (Cytochrome P450 2D6) greater than 10000 nM.
